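Method: 48-hour compound exposure of cells in 96-well plates, five concentrations, linear interpolation of endpoints. GI50 is the concentration that inhibits growth by half.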 The source made the active and inactive calls. No stated cut-off is given here; in the data, active = GI50 up to about 1.1 µM and inactive = higher. Residues, ends and D or L forms follow the SMILES beside them. *: point of attachment. X38 = O=C(c1ccc(-c2ccc(Cl)cc2Cl)o1)*
Columns and labels:
Assay in all cases: growth of human tumour cells (NCI), 48 h
SN12C = system: SN12C
Malme-3M = system: Malme-3M
SK-OV-3 = system: SK-OV-3
CCRF-CEM = system: CCRF-CEM
HCC 2998 = system: HCC 2998
UO-31 = system: UO-31
SW-620 = system: SW-620
SF-539 = system: SF-539
T47D = system: T47D
EKVX = system: EKVX
CAKI-1 = system: CAKI-1
HL-60 = system: HL-60
NCI-H522 = system: NCI-H522
HCT-116 = system: HCT-116
HOP-92 = system: HOP-92
OVCAR-4 = system: OVCAR-4
DU-145 = system: DU-145
HT-29 = system: HT-29
SF-295 = system: SF-295
HCT-15 = system: HCT-15

| SMILES | GI50 (SN12C) | GI50 (Malme-3M) | GI50 (SK-OV-3) | GI50 (CCRF-CEM) | GI50 (HCC 2998) | GI50 (UO-31) | GI50 (SW-620) | GI50 (SF-539) | GI50 (T47D) | GI50 (EKVX) | GI50 (CAKI-1) | GI50 (HL-60) | GI50 (NCI-H522) | GI50 (HCT-116) | GI50 (HOP-92) | GI50 (OVCAR-4) | GI50 (DU-145) | GI50 (HT-29) | GI50 (SF-295) | GI50 (HCT-15) [µM] |
| --- | --- | --- | --- | --- | --- | --- | --- | --- | --- | --- | --- | --- | --- | --- | --- | --- | --- | --- | --- | --- |
| COC(=O)c1c(C)cccc1CC1Cc2c(C)cccc2C1=O (centres undefined) | 43.4 µM (inactive) | 21.6 µM (inactive) | 20.2 µM (inactive) | 23 µM (inactive) | 27.9 µM (inactive) | 16.9 µM (inactive) | 40.6 µM (inactive) | 40.8 µM (inactive) | 27.5 µM (inactive) | 33.7 µM (inactive) | 33.4 µM (inactive) | 16.9 µM (inactive) | 13.2 µM (inactive) | 25.9 µM (inactive) | 24.4 µM (inactive) | 32.8 µM (inactive) | 60.1 µM (inactive) | 30.5 µM (inactive) | 32.8 µM (inactive) | 25.8 |
| CCOC(=O)c1ccc(-c2cccs2)n1C | > 100 µM (inactive) | > 67.1 µM (inactive) | > 87.3 µM (inactive) | 71.8 µM (inactive) | > 100 µM (inactive) | 43.7 µM (inactive) | > 80.7 µM (inactive) | > 100 µM (inactive) | 19 µM (inactive) | 48.5 µM (inactive) | > 100 µM (inactive) | > 69.5 µM (inactive) | 51.6 µM (inactive) | > 95.1 µM (inactive) | > 43.1 µM (inactive) | 79.8 µM (inactive) | > 100 µM (inactive) | 47.2 µM (inactive) | > 95.3 µM (inactive) | 51.5 |
| O=C(/C=C/c1ccco1)CC(=O)/C=C/c1ccco1 | 10.1 µM (inactive) | 13 µM (inactive) | > 10 µM (inactive) | 6.17 µM (inactive) | 12.8 µM (inactive) | 13.3 µM (inactive) | 10.9 µM (inactive) | 13.9 µM (inactive) | 8.67 µM (inactive) | 20.5 µM (inactive) | 14.7 µM (inactive) | 5.55 µM (inactive) | 7.31 µM (inactive) | 11.4 µM (inactive) | 28.8 µM (inactive) | 15.5 µM (inactive) | > 10 µM (inactive) | > 10 µM (inactive) | > 10 µM (inactive) | 12.5 |
| O=c1c2nn3c(=O)n(-c4ccccc4)c(=O)c3nn2c(=O)n1-c1ccccc1 | > 100 µM (inactive) | > 100 µM (inactive) | > 100 µM (inactive) | 56 µM (inactive) | > 100 µM (inactive) | > 100 µM (inactive) | > 100 µM (inactive) | > 100 µM (inactive) | > 100 µM (inactive) | > 100 µM (inactive) | > 100 µM (inactive) | > 100 µM (inactive) | > 100 µM (inactive) | > 100 µM (inactive) | > 100 µM (inactive) | > 100 µM (inactive) | > 100 µM (inactive) | > 100 µM (inactive) | 54.1 µM (inactive) | > 100 |
| C=C1C(=O)O[C@H]2C1C[C@@H](O)/C(C)=C/CC[C@@]1(C)O[C@H]21 (some centres undefined) | 29.2 µM (inactive) | 4.08 µM (inactive) | 49.7 µM (inactive) | 3.17 µM (inactive) | 33.1 µM (inactive) | 18.7 µM (inactive) | 4.81 µM (inactive) | 19.9 µM (inactive) | 9.12 µM (inactive) | 12.2 µM (inactive) | 3.03 µM (inactive) | 2.87 µM (inactive) | 2.97 µM (inactive) | 8.93 µM (inactive) | 8.89 µM (inactive) | 11.4 µM (inactive) | 20.7 µM (inactive) | 22.9 µM (inactive) | > 55.1 µM (inactive) | 12.1 |
| ClCc1nn(-c2ccccc2)c(CCl)c1CCl | 3.11 µM (inactive) | 2.99 µM (inactive) | 8.89 µM (inactive) | 1.17 µM (inactive) | 12.1 µM (inactive) | 4.74 µM (inactive) | 2.55 µM (inactive) | 2.34 µM (inactive) | 3.55 µM (inactive) | 3.03 µM (inactive) | 7.31 µM (inactive) | 1.82 µM (inactive) | 4.25 µM (inactive) | 2.33 µM (inactive) | 3.33 µM (inactive) | 2.72 µM (inactive) | 4.68 µM (inactive) | 3.43 µM (inactive) | 6 µM (inactive) | 3.33 |
| CC(=O)c1ccc2c(c1)C(=O)c1sc(C(C)=O)cc1C2=O | 0.578 µM (active) | 0.526 µM (active) | 6.98 µM (inactive) | 0.403 µM (active) | 3.17 µM (inactive) | 1.07 µM (active) | 0.738 µM (active) | 0.804 µM (active) | 1.32 µM (inactive) | 1.18 µM (inactive) | 1.75 µM (inactive) | 0.24 µM (active) | 0.652 µM (active) | 0.488 µM (active) | 1.42 µM (inactive) | 1.73 µM (inactive) | 1.01 µM (active) | 1.2 µM (inactive) | 1.01 µM (active) | 0.918 |
| Cc1ccc2c(O)cc(-c3ccsc3)nc2n1 | 5.83 µM (inactive) | 3.66 µM (inactive) | 10 µM (inactive) | 6.18 µM (inactive) | 5.9 µM (inactive) | 2.32 µM (inactive) | 1.75 µM (inactive) | 5.93 µM (inactive) | 5.01 µM (inactive) | 16.9 µM (inactive) | 6.95 µM (inactive) | 2.17 µM (inactive) | 3.67 µM (inactive) | 3.62 µM (inactive) | > 24.6 µM (inactive) | > 29.9 µM (inactive) | 9.79 µM (inactive) | 5.62 µM (inactive) | 3.44 µM (inactive) | 1.68 |
| COc1cc2oc3c(c(=O)c2c(O)c1/C=C/C(C)C)C(C=C(C)C)Oc1cc(O)ccc1-3 (centres undefined) | 16.1 µM (inactive) | 22.5 µM (inactive) | 16.6 µM (inactive) | 5.53 µM (inactive) | 12.1 µM (inactive) | 12.1 µM (inactive) | 16.1 µM (inactive) | 17.5 µM (inactive) | 16.4 µM (inactive) | 16.1 µM (inactive) | 18 µM (inactive) | 17.8 µM (inactive) | 16.8 µM (inactive) | 14.4 µM (inactive) | 15.6 µM (inactive) | 16.6 µM (inactive) | 16.3 µM (inactive) | 14 µM (inactive) | 17.1 µM (inactive) | 15.8 |
| COC(=O)C(CC(C)C)NC(=O)C(Cc1ccccc1)NC(=O)C1CCCN1C(=O)C(CO)NC(=O)c1ccc(-c2ccc(Cl)cc2Cl)o1 (centres undefined) (X38-SPFL-OMe; configuration not given here) | 32.1 µM (inactive) | 42.1 µM (inactive) | 1.11 µM (active) | 36.8 µM (inactive) | 13.2 µM (inactive) | 23.9 µM (inactive) | 30.7 µM (inactive) | 24.3 µM (inactive) | 28.9 µM (inactive) |  | 28.3 µM (inactive) | 19.5 µM (inactive) | 28.1 µM (inactive) | 22.6 µM (inactive) | 21.2 µM (inactive) | 31.2 µM (inactive) | 38 µM (inactive) | 17.6 µM (inactive) | 19.5 µM (inactive) | 24 |

Reference: ChEMBL document CHEMBL1201862, “PubChem BioAssay data set” (2004)
